A value given as a limit tells only on which side of the number the result lay.

One test deals with D(1A) dopamine receptor (Homo sapiens, UniProt P21728). The experiment in a line: GPCRScan assay: inhibition of D1. Further details: radioligand conc. used [nm] 0.6 – 1.3, parental cells HEKT.
For the next test, the target named is Prostacyclin receptor (Homo sapiens, UniProt P43119). Nature of the test: Binding assay (PTGIR).
Test [1] concerns the target 5-hydroxytryptamine receptor 7 (Homo sapiens) (UniProt P34969). Nature of the test: 5-HT7 (h) CEREP ligand profiling. The following applies: Compound concentration 10.0 uM.
Test [2] has as its target Adenosine receptor A3 (Homo sapiens) (UniProt P0DMS8). Nature of the test: A3 (h) CEREP ligand profiling. To be noted: Compound concentration 10.0 uM.
In test [3] the target is Adrenergic receptor alpha-1 (Homo sapiens) (UniProt P35348+P25100+P35368). Nature of the test: alpha 1 (non- selective) CEREP ligand profiling. It is filed as protein assay. To be noted: Compound concentration 10.0 uM.
Test [4] deals with T1, Alpha-2A adrenergic receptor (Homo sapiens) (UniProt P08913).
T1 sequence (whole entry): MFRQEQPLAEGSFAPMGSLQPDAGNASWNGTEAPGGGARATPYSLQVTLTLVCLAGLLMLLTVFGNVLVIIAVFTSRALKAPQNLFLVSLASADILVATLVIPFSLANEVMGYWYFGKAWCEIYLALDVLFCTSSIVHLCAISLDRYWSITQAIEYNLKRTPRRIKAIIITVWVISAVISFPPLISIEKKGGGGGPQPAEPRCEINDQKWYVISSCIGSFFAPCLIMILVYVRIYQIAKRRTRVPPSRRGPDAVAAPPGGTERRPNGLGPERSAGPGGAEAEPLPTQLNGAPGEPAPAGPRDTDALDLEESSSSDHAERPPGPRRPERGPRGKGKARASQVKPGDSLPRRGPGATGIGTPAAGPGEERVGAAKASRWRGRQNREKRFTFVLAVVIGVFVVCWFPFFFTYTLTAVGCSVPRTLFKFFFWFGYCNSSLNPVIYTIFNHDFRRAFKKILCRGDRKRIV
The experiment in a line: alpha 2A (h) CEREP ligand profiling. The following applies: Compound concentration 10.0 uM.

Test [5] addresses T2, Alpha-2B adrenergic receptor (Homo sapiens) (UniProt P18089).
T2 sequence (whole entry): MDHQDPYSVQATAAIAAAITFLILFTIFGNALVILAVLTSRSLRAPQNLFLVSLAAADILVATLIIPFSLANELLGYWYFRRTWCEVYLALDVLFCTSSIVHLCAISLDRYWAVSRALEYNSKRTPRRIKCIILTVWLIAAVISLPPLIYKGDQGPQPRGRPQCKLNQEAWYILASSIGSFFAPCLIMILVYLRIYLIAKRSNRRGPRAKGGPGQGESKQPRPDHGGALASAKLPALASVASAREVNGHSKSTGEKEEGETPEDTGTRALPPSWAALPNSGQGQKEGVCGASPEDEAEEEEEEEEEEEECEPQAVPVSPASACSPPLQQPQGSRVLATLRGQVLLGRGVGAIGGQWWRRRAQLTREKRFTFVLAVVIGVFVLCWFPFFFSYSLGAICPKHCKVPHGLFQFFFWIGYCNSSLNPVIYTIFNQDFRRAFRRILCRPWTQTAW
The experiment in a line: alpha 2B (h) CEREP ligand profiling. To be noted: Compound concentration 10.0 uM.

The target of test [6] is Cholecystokinin receptor type A (Homo sapiens) (UniProt P32238). Nature of the test: CCKA (h) (CCK1) CEREP ligand profiling. The following applies: Compound concentration 10.0 uM.
The target in test [7] is D(2) dopamine receptor (Homo sapiens) (UniProt P14416). Nature of the test: D2S (h) (agonist site) CEREP ligand profiling. To be noted: Compound concentration 10.0 uM.
Test [8] concerns the target Melanocyte-stimulating hormone receptor (Homo sapiens) (UniProt Q01726). The experiment in a line: MC1 CEREP ligand profiling. The following applies: Compound concentration 10.0 uM.
The target in test [9] is Matrix metalloproteinase-9 (Homo sapiens) (UniProt P14780). Nature of the test: MMP-9 (h) CEREP ligand profiling. The following applies: Compound concentration 10.0 uM.
Test [10] deals with cGMP-dependent 3',5'-cyclic phosphodiesterase (Homo sapiens) (UniProt O00408). Nature of the test: PDE2 (h) CEREP ligand profiling. To be noted: Compound concentration 10.0 uM.
Test [11] addresses Phosphodiesterase 4 (Homo sapiens) (UniProt P27815+Q08499+Q07343+Q08493). Nature of the test: PDE4 (h) CEREP ligand profiling. The class given is protein assay. To be noted: Compound concentration 10.0 uM.
The target of test [12] is Neuropeptide Y receptor type 1 (Homo sapiens) (UniProt P25929). The experiment in a line: Y1 (h) CEREP ligand profiling. To be noted: Compound concentration 10.0 uM.
The subject of test [13] is Tyrosine-protein kinase ABL1 (Homo sapiens), P00519 [M351T]. To be noted: Compound concentration 1000.0 nM.
Test [14] has as its system Tyrosine-protein kinase ABL1 (Homo sapiens), P00519 [T315I]. To be noted: Compound concentration 1000.0 nM.
For test [15], the target named is Calcium/calmodulin-dependent protein kinase kinase 2 (Homo sapiens) (UniProt Q96RR4). The following applies: Compound concentration 1000.0 nM.
Test [16] concerns the target Peripheral plasma membrane protein CASK (Homo sapiens) (UniProt O14936). The following applies: Compound concentration 1000.0 nM.
Test [17] has as its target Myotonin-protein kinase (Homo sapiens) (UniProt Q09013). To be noted: Compound concentration 1000.0 nM.
Test [18] deals with Dual specificity tyrosine-phosphorylation-regulated kinase 2 (Homo sapiens) (UniProt Q92630). To be noted: Compound concentration 1000.0 nM.
For test [19], the target named is Ephrin type-A receptor 5 (Homo sapiens) (UniProt P54756). The following applies: Compound concentration 1000.0 nM.
For test [20], the target named is Mitogen-activated protein kinase 15 (Homo sapiens) (UniProt Q8TD08). The following applies: Compound concentration 1000.0 nM.
Test [21] has as its target Tyrosine-protein kinase Fer (Homo sapiens) (UniProt P16591). The following applies: Compound concentration 1000.0 nM.
For test [22], the system named is Receptor-type tyrosine-protein kinase FLT3 (Homo sapiens), P36888 [D835H]. To be noted: Compound concentration 1000.0 nM.
Test [23] addresses Insulin receptor-related protein (Homo sapiens) (UniProt P14616). The following applies: Compound concentration 1000.0 nM.
Test [24] concerns the target Mitogen-activated protein kinase kinase kinase 3 (Homo sapiens) (UniProt Q99759). To be noted: Compound concentration 1000.0 nM.
Test [25] concerns the target Mitogen-activated protein kinase kinase kinase kinase 5 (Homo sapiens) (UniProt Q9Y4K4). The following applies: Compound concentration 1000.0 nM.
Test [26] concerns the target Serine/threonine-protein kinase PAK 3 (Homo sapiens) (UniProt O75914). The following applies: Compound concentration 1000.0 nM.
In test [27] the target is Serine/threonine-protein kinase PLK3 (Homo sapiens) (UniProt Q9H4B4). The following applies: Compound concentration 1000.0 nM.
Test [28] has as its target Proto-oncogene tyrosine-protein kinase ROS (Homo sapiens) (UniProt P08922). To be noted: Compound concentration 1000.0 nM.
Test [29] concerns the target Serine/threonine-protein kinase Sgk2 (Homo sapiens) (UniProt Q9HBY8). To be noted: Compound concentration 1000.0 nM.
Test [30] has as its target Serine/threonine-protein kinase TAO3 (Homo sapiens) (UniProt Q9H2K8). To be noted: Compound concentration 1000.0 nM.
Test [31] deals with Serine/threonine-protein kinase WNK4 (Homo sapiens) (UniProt Q96J92). To be noted: Compound concentration 1000.0 nM.
The target of test [32] is Tyrosine-protein kinase ZAP-70 (Homo sapiens) (UniProt P43403). The following applies: Compound concentration 1000.0 nM.

Sequence of cGMP-dependent 3',5'-cyclic phosphodiesterase (Homo sapiens) (O00408 whole entry): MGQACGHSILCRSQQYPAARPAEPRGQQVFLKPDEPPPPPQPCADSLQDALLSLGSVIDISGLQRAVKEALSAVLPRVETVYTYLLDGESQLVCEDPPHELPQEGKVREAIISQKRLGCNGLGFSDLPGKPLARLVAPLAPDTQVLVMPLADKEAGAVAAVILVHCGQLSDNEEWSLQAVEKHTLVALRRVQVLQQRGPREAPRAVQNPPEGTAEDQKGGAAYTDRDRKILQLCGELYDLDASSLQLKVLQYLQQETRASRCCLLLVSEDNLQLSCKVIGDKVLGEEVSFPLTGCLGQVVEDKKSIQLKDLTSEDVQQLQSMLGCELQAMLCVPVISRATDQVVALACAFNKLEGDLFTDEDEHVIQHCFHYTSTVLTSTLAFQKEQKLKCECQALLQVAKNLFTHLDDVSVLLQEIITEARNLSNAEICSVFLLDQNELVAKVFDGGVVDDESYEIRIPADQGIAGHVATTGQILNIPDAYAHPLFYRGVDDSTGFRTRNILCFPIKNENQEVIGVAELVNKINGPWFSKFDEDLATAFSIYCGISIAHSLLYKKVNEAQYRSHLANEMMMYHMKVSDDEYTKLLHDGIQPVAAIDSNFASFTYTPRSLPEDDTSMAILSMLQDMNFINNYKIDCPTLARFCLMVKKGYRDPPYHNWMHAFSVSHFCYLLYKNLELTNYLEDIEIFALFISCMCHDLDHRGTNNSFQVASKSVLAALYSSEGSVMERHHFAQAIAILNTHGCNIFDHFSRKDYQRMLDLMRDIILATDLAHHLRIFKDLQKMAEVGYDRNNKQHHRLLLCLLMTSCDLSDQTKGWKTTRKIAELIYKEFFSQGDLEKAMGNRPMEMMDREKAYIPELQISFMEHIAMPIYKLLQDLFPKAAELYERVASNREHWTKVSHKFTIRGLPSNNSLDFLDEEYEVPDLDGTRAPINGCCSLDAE
Sequence of Proto-oncogene tyrosine-protein kinase ROS (Homo sapiens) (P08922 whole entry): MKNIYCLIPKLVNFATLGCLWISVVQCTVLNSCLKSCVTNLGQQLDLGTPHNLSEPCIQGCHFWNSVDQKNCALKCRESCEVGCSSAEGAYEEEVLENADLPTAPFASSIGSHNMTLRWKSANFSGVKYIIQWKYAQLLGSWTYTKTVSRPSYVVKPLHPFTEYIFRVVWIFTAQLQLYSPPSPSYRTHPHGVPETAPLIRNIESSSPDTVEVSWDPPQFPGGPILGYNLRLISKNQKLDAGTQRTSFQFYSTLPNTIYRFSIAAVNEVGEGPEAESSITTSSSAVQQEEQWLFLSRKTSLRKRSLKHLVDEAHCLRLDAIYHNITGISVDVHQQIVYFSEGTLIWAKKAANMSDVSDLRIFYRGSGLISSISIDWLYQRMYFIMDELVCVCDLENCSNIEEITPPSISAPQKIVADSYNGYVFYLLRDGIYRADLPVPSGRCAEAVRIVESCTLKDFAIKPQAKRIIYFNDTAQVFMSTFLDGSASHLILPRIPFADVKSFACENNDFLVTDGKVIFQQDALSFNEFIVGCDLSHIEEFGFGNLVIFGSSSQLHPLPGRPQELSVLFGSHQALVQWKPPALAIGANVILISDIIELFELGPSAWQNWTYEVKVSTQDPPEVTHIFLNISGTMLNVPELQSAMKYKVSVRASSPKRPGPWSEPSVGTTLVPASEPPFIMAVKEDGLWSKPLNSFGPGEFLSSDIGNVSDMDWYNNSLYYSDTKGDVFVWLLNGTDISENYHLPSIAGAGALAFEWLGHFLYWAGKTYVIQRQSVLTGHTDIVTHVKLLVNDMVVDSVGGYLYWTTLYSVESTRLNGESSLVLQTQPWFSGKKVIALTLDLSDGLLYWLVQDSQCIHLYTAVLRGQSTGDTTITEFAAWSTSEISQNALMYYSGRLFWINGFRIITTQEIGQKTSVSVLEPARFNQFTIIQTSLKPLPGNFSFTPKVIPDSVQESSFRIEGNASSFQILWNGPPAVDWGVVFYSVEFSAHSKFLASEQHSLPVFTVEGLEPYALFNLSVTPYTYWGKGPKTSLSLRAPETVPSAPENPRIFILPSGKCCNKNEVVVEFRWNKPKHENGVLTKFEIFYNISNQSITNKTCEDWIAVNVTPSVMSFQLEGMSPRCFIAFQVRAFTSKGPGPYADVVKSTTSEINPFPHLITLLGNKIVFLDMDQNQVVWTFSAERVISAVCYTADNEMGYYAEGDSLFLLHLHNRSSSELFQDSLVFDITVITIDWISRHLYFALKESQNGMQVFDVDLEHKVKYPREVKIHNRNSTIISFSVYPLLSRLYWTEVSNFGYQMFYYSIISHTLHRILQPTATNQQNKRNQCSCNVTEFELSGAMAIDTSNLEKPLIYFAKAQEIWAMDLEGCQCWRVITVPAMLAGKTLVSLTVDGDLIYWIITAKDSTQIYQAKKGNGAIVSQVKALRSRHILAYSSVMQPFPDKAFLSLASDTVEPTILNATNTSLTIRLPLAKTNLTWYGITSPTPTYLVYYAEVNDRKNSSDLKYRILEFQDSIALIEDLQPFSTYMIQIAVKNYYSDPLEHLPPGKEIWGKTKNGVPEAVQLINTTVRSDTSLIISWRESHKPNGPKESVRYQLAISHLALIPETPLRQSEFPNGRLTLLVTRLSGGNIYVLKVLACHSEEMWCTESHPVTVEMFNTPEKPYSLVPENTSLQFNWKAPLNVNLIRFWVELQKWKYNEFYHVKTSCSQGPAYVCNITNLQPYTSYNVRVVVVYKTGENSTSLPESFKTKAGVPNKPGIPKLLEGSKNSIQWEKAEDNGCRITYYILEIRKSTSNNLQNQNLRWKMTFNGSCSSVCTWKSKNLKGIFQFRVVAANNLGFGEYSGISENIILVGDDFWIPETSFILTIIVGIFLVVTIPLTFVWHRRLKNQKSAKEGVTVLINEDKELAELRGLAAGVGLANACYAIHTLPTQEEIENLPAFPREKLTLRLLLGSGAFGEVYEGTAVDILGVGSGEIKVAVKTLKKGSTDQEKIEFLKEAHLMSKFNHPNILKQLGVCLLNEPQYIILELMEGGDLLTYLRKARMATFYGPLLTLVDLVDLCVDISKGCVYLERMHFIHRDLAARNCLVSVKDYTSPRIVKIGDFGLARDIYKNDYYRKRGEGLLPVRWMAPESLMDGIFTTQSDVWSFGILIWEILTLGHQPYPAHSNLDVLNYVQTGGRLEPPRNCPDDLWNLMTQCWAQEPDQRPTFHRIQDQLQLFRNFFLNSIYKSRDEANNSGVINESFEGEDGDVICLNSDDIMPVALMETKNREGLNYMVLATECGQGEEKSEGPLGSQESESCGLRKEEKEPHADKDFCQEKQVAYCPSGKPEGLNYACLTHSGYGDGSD
Sequence of Mitogen-activated protein kinase kinase kinase kinase 5 (Homo sapiens) (Q9Y4K4 whole entry, looked up): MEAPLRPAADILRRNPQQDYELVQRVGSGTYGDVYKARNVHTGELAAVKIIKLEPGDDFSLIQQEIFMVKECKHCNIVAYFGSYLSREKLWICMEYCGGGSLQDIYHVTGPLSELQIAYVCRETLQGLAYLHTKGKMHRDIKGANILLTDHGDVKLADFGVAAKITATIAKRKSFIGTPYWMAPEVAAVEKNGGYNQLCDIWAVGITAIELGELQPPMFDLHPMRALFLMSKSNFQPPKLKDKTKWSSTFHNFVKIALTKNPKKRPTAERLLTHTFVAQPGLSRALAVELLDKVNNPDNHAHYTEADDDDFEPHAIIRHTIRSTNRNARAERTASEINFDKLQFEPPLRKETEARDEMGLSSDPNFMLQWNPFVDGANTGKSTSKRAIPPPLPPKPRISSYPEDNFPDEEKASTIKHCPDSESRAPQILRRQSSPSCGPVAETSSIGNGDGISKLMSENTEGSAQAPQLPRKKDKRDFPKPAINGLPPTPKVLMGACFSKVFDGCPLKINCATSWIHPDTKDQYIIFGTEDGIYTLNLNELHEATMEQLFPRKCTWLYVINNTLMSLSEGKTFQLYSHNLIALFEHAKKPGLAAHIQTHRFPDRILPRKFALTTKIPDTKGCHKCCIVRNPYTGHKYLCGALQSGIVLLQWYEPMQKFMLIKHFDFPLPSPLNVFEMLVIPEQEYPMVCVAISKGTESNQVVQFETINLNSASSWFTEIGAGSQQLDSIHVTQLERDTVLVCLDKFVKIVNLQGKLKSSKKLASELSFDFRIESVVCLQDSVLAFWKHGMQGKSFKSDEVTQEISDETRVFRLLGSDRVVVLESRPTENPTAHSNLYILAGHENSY
Sequence of Neuropeptide Y receptor type 1 (Homo sapiens) (P25929 whole entry): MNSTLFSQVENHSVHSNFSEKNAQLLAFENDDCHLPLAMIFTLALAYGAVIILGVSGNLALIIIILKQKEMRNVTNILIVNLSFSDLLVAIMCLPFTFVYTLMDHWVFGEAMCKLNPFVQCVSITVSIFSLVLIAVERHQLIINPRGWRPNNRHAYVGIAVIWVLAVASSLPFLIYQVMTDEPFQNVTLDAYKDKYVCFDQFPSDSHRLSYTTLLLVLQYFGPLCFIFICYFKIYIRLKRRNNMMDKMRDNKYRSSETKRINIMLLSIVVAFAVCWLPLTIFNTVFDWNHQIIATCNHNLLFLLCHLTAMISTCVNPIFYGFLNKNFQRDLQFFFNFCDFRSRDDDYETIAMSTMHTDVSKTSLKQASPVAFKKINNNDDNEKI
Sequence of Adenosine receptor A3 (Homo sapiens) (P0DMS8 whole entry): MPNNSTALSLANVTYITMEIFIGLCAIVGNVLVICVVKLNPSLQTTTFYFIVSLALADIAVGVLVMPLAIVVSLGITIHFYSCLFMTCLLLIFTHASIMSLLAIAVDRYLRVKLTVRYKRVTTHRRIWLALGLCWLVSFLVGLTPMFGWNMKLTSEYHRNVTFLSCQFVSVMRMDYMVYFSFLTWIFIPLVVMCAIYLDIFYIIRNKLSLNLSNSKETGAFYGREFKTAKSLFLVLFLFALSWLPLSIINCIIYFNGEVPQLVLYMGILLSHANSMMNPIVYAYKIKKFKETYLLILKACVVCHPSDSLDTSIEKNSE

In general, Ki refers to the dissociation constant of the complex between target and ligand, obtained from inhibition or displacement. As for `O=C(c1ccc(F)cc1)N1CC(COc2ccc(Br)cc2)(C(=O)O)C1` [PF-04475866], the Ki on D(1A) dopamine receptor was found to be 10 µM.

In general, inhibition refers to the drop in the measured response relative to a control, in per cent. For the compound `COc1ccc2cc(OCC3(C(=O)O)CN(C(=O)c4ccc(F)cc4)C3)ccc2c1` [PF-04418948], on Prostacyclin receptor, the Ki is > 10 µM (not active). The inhibition in test [1] was -2%; in test [2] it was -10%; in [3] it was 9%; in [4] it was 26%; in [5] it was 1%; in test [6] it was 29%. The inhibition in [7] was -6%; in [8], 6%; in test [9] it was 10%; in [10], 5%; in test [11], 8%; in [12], 1%. Also, the residual activity is 87% in test [13]; 84% in [14]; 94% in [15]; 91% in [16]; 76% in test [17]; 84% in test [18]. Moreover, the residual activity in test [19] is 78%; in [20], 74%; in test [21] it was 74%; in test [22] it was 71%; in test [23] it was 67%; in test [24], 97%. Besides, the residual activity in test [25] is 86%; in [26], 94%; in [27] it was 95%; in [28], 81%; in [29], 87%; in test [30] it was 35%. In addition, the residual activity in [31] was 79%; in [32] it was 99%.

The values above are taken from ChEMBL document CHEMBL4507298 (2021).
